Test results reported in US8372845B2, “Pyrazine derivatives as enac blockers” (Novartis AG, priority 2010, dated 2013).

Tests used:
[1] = Stability in human plasma; format: in vitro ADME; settings: pooled human plasma (lithium heparin), 1 μM compound, 37° C., 1 hour incubation
Protocol: The stability of the compounds of the invention in human plasma may be measured as follows:
Stability in Human Plasma
Blood was taken from healthy volunteers in lithium heparin tubes and plasma was prepared by centrifugal separation of blood cells at 1500 g. Plasma from at least 3 individuals was pooled and used for compound stability determination.
Compounds were prepared in 100% DMSO at a concentration of 10 mM and serially diluted to a concentration of 100 μM. Incubations were performed at a final concentration of 1 μM and were initiated by addition of 3 μl of 100 μM compound stock solution into 297 μl plasma, pre-warmed in a water bath to 37° C., followed by brief vortex mixing. 50 μl aliquots of plasma were removed at 4 timepoints over a 1 hour incubation period and quenched immediately by protein precipitation achieved by addition of the aliquot of plasma to a pre-prepared 96 well plate containing 150 μl of acetonitrile containing an appropriate internal standard. Acetonitrile quenched samples were vortex mixed followed by centrifugation for 20 minutes at 1500 g to remove the precipitated proteins. Initial compound levels (at time=0 minutes) was established by spiking compound into pre-quenched plasma at the same concentration as used in the incubation. The supernatant was then removed, diluted 1:1 with water and analysed for compound remaining by liquid chromatography-tandem mass spectrometry (Waters Acquity HPLC, Applied Biosystems API4000). The plasma elimination rate constant of the compound was calculated by fitting the peak area ratio of compound:internal standard to an exponential decay function and the half life calculated by division of the natural log of 2 by the elimination rate constant (Microsoft Excel).

[2] = biological target: T1, epithelial sodium channel (ENaC) (Homo sapiens, UniProt P37088+P51168+P51170); assay: Short circuit current (ISC) measurements in Human Bronchial Epithelial cells (HBEC-ENaC); format: cell-based; settings: inhibition of amiloride-sensitive ISC, HBECs at air-liquid interface, Ussing chamber, apical addition
T1 construct: host or cells: primary Human Bronchial Epithelial cells (HBECs), differentiated at air-liquid interface
T1 sequence (P37088 1-669): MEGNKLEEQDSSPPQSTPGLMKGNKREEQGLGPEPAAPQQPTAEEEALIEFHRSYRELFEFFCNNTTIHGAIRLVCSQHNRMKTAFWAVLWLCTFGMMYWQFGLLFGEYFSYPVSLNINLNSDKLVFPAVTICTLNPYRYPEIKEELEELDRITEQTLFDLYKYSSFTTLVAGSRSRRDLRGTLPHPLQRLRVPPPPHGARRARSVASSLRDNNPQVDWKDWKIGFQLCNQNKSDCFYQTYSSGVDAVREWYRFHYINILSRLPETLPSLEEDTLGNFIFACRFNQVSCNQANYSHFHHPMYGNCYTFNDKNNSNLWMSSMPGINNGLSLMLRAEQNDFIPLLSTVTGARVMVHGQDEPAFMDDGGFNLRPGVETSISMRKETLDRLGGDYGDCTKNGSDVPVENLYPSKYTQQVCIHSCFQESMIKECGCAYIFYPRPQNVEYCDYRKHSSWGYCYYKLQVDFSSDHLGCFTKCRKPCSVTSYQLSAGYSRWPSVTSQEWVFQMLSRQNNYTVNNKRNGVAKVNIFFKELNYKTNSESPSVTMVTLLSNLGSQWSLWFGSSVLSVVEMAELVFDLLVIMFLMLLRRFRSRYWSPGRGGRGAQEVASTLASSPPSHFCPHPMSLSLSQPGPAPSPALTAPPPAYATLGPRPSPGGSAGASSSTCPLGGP
T1 sequence (P51168 1-640): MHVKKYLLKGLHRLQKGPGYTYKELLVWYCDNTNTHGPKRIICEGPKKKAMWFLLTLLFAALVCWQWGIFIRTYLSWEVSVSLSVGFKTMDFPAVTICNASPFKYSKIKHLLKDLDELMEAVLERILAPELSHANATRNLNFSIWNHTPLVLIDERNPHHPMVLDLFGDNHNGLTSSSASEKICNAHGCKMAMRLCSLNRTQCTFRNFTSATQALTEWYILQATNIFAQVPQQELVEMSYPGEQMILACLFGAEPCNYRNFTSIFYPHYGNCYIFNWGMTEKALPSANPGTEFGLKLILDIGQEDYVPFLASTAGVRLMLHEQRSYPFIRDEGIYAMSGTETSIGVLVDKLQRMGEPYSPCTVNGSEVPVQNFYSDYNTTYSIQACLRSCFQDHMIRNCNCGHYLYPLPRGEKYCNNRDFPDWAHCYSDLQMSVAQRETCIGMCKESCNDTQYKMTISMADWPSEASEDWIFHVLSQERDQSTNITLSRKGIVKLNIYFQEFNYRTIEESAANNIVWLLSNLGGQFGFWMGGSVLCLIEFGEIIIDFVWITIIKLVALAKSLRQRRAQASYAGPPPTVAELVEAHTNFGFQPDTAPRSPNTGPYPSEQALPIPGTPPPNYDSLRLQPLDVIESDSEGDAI
T1 sequence (P51170 1-649): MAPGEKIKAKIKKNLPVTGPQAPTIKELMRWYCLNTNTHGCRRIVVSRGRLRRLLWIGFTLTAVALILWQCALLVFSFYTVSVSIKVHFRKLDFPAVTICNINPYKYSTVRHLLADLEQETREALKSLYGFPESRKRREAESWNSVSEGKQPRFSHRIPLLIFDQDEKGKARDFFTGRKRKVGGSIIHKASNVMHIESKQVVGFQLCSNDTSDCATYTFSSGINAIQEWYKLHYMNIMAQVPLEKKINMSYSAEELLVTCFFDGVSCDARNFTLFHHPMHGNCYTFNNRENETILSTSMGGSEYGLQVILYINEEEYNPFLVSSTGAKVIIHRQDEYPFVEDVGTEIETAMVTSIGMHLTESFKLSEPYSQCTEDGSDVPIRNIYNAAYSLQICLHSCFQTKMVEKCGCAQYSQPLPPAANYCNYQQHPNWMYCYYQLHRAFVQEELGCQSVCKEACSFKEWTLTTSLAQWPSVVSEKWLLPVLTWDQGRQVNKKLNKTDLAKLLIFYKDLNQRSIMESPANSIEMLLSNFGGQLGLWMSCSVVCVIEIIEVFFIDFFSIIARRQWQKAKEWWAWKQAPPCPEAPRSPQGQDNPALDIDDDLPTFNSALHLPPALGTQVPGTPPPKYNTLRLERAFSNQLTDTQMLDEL
Protocol: Human Bronchial Epithelial cells (HBECs) (Cambrex) were cultured under air-liquid interface conditions to provide a well differentiated mucociliary phenotype.
Medium was changed every 48 hours until cells were 90% confluent. […] Cells were maintained submerged for the first 7 days in culture, after which time they were exposed to an apical air interface for the remainder of the culture period. At this time, media was changed to DMEM:F12 media containing 2% v/v Ultroser G for the remainder of culture. Amphotericin B was removed from all media 3 feeds prior to use in the Ussing Chambers. Cells were used between days 7 and 21 after establishment of the apical-air interface. At all stages of culture, cells were maintained at 37° C. in 5% CO2 in an air incubator.
Short Circuit Current (ISC) Measurements
Snapwell inserts were mounted in Vertical Diffusion Chambers (Costar) and were bathed with continuously gassed Ringer solution (5% CO2 in O2; pH 7.4) maintained at 37° C. containing (in mM): 120 NaCl, 25 NaHCO3, 3.3 KH2PO4, 0.8 K2HPO4, 1.2 CaCl2, 1.2 MgCl2, and 10 glucose. The solution osmolarity was between 280 and 300 mOsmol/kg H2O for all physiological salt solutions used. Cells were voltage clamped to 0 mV (model EVC4000; WPI). RT was measured by applying a 1- or 2-mV pulse at 30-s intervals and calculating RT by Ohm's law. Data were recorded using a PowerLab workstation (ADInstruments).
Test compounds were prepared as a 10 mM stock solution in DMSO (95%). Serial 3-fold dilutions were freshly prepared in an appropriate vehicle (distilled H2O or Ringers solution). The initial concentration was added to the apical chamber as a 1000× concentrate in 5 μL, resulting in a final 1× concentration the 5 mL volume of the Ussing chamber. Subsequent additions of compound were added in a 3.3 μL volume of the 1000× serially diluted stock solution. At the completion of the concentration-response experiment, amiloride (10 μM) was added into the apical chamber to enable the total amiloride-sensitive current to be measured. An amiloride control IC50 was established at the start of each experiment.
Results are expressed as the mean % inhibition of the amiloride-sensitive ISC. […] Cell inserts were typically run in duplicate and the IC50 calculated on the mean % inhibition data.

SMILES | half-life at 1 μM [1] | IC50 [2]
CCCN(CCC)C(=O)COC(=O)COc1ccc(CCC(=O)N2CCC3(CC2)CN/C(=N\C(=O)c2nc(Cl)c(N)nc2N)N3)cc1Cl [Example 3.0, [2-Chloro-4-(3-{2-[(E)-3,5-diamino-6-chloro-pyrazine-2-carbonylimino]-1,3,8-triaza-spiro[4.5]dec-8-yl}-3-oxo-propyl)-phenoxy]-acetic acid dipropylcarbamoylmethyl ester] | 2 min | 11 nM
Nc1nc(N)c(C(=O)/N=C2\NCC3(CCN(C(=O)CCc4ccc(OCC(=O)OCC(=O)N5CCOCC5)cc4)CC3)N2)nc1Cl [Example 4.2, [4-(3-{2-[(E)-3,5-Diamino-6-chloro-pyrazine-2-carbonylimino]-1,3,8-triaza-spiro[4.5]dec-8-yl}-3-oxo-propyl)-phenoxy]-acetic acid 2-morpholin-4-yl-2-oxo-ethyl ester] | 4 min | 450 nM
Nc1nc(N)c(C(=O)/N=C2\NCC3(CCN(C(=O)CCc4ccc(OCC(=O)OCC(=O)OC5CCCCC5)cc4)CC3)N2)nc1Cl [Example 1.2, [4-(3-{2-[(E)-3,5-Diamino-6-chloro-pyrazine-2-carbonylimino]-1,3,8-triaza-spiro[4.5]dec-8-yl}-3-oxo-propyl)-phenoxy]-acetic acid cyclohexyl oxycarbonylmethyl ester] | 3 min | 10 nM
Nc1nc(N)c(C(=O)/N=C2\NCC3(CCN(C(=O)c4cccc(S(=O)(=O)NCCC(=O)OCC(=O)N5CCCC5C(F)(F)F)c4)CC3)N2)nc1Cl (centres unmarked) [Example 4.0, 3-(3-{2-[(E)-3,5-Diamino-6-chloro-pyrazine-2-carbonylimino]-1,3,8-triaza-spiro[4.5]decane-8-carbonyl}-benzenesulfonylamino)-propionic acid 2-oxo-2-(2-trifluoromethyl-pyrrolidin-1-yl)-ethyl ester] | 28 min | 101 nM
CCCN(CCC)C(=O)COC(=O)CCNC(=O)Nc1cccc(C(=O)N2CCC3(CC2)CN/C(=N\C(=O)c2nc(Cl)c(N)nc2N)N3)c1 [Example 5.1, 3-[3-(3-{2-[(E)-3,5-Diamino-6-chloro-pyrazine-2-carbonylimino]-1,3,8-triaza-spiro[4.5]decane-8-carbonyl}-phenyl)-ureido]-propionic acid dipropylcarbamoylmethyl ester] | 2 min | 31 nM
Nc1nc(N)c(C(=O)/N=C2\NCC3(CCN(C(=O)c4cccc(S(=O)(=O)NCCC(=O)OCC(=O)OC5CCCCC5)c4)CC3)N2)nc1Cl [Example 1.3, 3-(3-{2-[(E)-3,5-Diamino-6-chloro-pyrazine-2-carbonylimino]-1,3,8-triaza-spiro[4.5]decane-8-carbonyl}-benzenesulfonylamino)-propionic acid cyclohexyloxy carbonylmethyl ester] | 4 min | 3 nM
CCCN(CCC)C(=O)COC(=O)C1(CNS(=O)(=O)c2cccc(C(=O)N3CCC4(CC3)CN/C(=N\C(=O)c3nc(Cl)c(N)nc3N)N4)c2)CCC1 [Example 5.0, 1-[(3-{2-[(E)-3,5-Diamino-6-chloro-pyrazine-2-carbonylimino]-1,3,8-triaza-spiro[4.5]decane-8-carbonyl}-benzenesulfonylamino)-methyl]-cyclobutanecarboxylic acid dipropylcarbamoylmethyl ester] | 5 min | 12 nM
